According to US20210221794A1, “ISATIN DERIVATIVES” (KING SAUD UNIVERSITY, priority 2020, published 2021):

Assays:
Format in all cases: cell-based, Human
Settings in all cases: concentration 10-M [sic], 2 days after addition
[1] = test system: Renal Cancer cells (UO-31); experiment: NCI-60 one-dose screen, Renal Cancer cells (UO-31)
Procedure: (§1) Anticancer activities of the exemplary isatin derivatives were tested by the NIH National Cancer Institutes (NCI), with results summarized in FIGS. 2A-2B. The anticancer activity was tested by NCI, division of cancer treatment and diagnosis, according to the NCI-60 Human Tumor Cell Lines Screen, one-dose screen (https://dtp.cancer.gov/discovery_development/nci-60/methodology.htm). This screening allows for qualified synthesized chemicals to be subjected to an anticancer test against 60 different cancer cell lines. Briefly, exemplary T1 or T2 was dissolved in DMSO:Glycerol, 9:1, at 4 mmol and kept frozen prior to use. For inoculation, a 96 well microtiter was used for the study of different cell lines. Based on the doubling time for each cell line, the well density varied. The plates were incubated at 37° C., 5% CO2, 95% air and 100% relative humidity for 1 day. The exemplary T1 or T2 or a control were added to the plates at a concentration of 10-M. After 2 more days, the plates were fixed and stained to identify growth inhibition relative to cells without drug treatment. Anti-proliferative activity was determined based on careful analysis of historical DTP screening data. Cell death and net growth inhibition were determined based on a time zero control. A value of 100 indicates no growth inhibition. A value of 40 indicates 60% growth inhibition. […]

[2] = test system: Renal Cancer cells (CAKI-1); experiment: NCI-60 one-dose screen, Renal Cancer cells (CAKI-1)
Procedure: as §1

[3] = test system: Non-Small Cell Lung Cancer cells (EKVX); experiment: NCI-60 one-dose screen, Non-Small Cell Lung Cancer cells (EKVX)
Procedure: as §1

[4] = test system: Breast Cancer cells (HS 578T); experiment: NCI-60 one-dose screen, Breast Cancer cells (HS 578T)
Procedure: as §1

[5] = test system: Ovarian Cancer cells (IGROV1); experiment: NCI-60 one-dose screen, Ovarian Cancer cells (IGROV1)
Procedure: as §1

[6] = test system: Colon Cancer cells (KM12); experiment: NCI-60 one-dose screen, Colon Cancer cells (KM12)
Procedure: as §1

SMILES	reduction compared to control (anticancer activity) [1]	reduction compared to control (anticancer activity) [2]	reduction compared to control (anticancer activity) [3]	reduction compared to control (anticancer activity) [4]	reduction compared to control (anticancer activity) [5]	reduction compared to control (anticancer activity) [6]
O=C1Nc2ccc(Cl)cc2C1=NN=Cc1c[nH]c2ccccc12 [T2]	~59%	~71%	~77%	~78%		
O=C1Nc2ccccc2C1=NN=Cc1c[nH]c2ccccc12 [T1]	~74%	~83%	~79%	~85%	~65%	~72%
